Test results from patent US20090054392A1, “NAPHTHYLPYRIMIDINE, NAPHTHYLPYRAZINE AND NAPHTHYLPYRIDAZINE ANALOGS AND THEIR USE AS AGONISTS OF THE WNT-BETA-CATENIN CELLULAR MESSAGING SYSTEM” (Wyeth, priority 2007, published 2009).
pEC50: −log10 of the molar value.

System: Dkk1-LRP5-TCF-Luciferase
Experiment: Functional Dkk1-LRP5-TCF-Luciferase Assay in U2OS Cells
Conditions: for fold induction at 2 µM / pEC50 / fold induction at 20 µM: Homo sapiens, U2OS; for fold induction at 2 µM: read-out: B = TCF ACTIVITY/DMSO CONTROL Fold induction @ 2.0 uM, 2.0 uM compound; for fold induction at 20 µM: read-out: C = TCF ACTIVITY/DMSO CONTROL Fold induction @ 20.0 uM, 20.0 uM compound; for A = MAX FOLD Induction/DMSO CONTROL: maximum fold induction over DMSO control

Row | pEC50 | A = MAX FOLD Induction/DMSO CONTROL [fold] | SMILES | fold induction at 2 µM | fold induction at 20 µM
1 | 5.35 | 1.935 | O=C1CCCN1[C@@H]1CCN(c2nccc(-c3ccc4ccccc4c3)n2)C1 [(3′R)-1′-[4-(2-naphthyl)pyrimidin-2-yl]-1,3′-bipyrrolidin-2-one] | 1.43 | 2.12
2 | 6.10 | 5.673 | NCC1CCN(c2ccnc(-c3ccc4ccccc4c3)n2)CC1 [1-{1-[2-(2-naphthyl)pyrimidin-4-yl]piperidin-4-yl}methanamine] | 3.22 | 0.003
3 | 5.45 | 6.735 | OC1CCCN([C@H]2CCN(c3nccc(-c4ccc5ccccc5c4)n3)C2)C1 (stereo partly drawn) [1-{(3S)-1-[4-(2-naphthyl)pyrimidin-2-yl]pyrrolidin-3-yl}piperidin-3-ol] | 2.48 | 0.13
4 |  | 1.120 | CS(=O)(=O)NC1CCCN(c2nccc(-c3ccc4ccccc4c3)n2)CC1 (stereo not drawn) [N-{1-[4-(2-naphthyl)pyrimidin-2-yl]azepan-4-yl}methanesulfonamide] | 2.04 | 2.21
5 |  | 2.500 | c1ccc2cc(-c3ccnc(N4CCC(CN5CCC5)C4)n3)ccc2c1 (stereo not drawn) [2-[3-(azetidin-1-ylmethyl)pyrrolidin-1-yl]-4-(2-naphthyl)pyrimidine] | 1.73 | 
6 |  | 0.800 | CC(C)(C)OC(=O)N1CC[C@@H](Nc2nccc(-c3ccc4ccccc4c3)n2)C1 [tert-butyl (3R)-3-{[4-(2-naphthyl)pyrimidin-2-yl]amino}pyrrolidine-1-carboxylate] | 2.38 | 0.01
7 | 4.72 | 3.695 | CC(=O)N[C@H]1CC[C@H](Nc2nccc(-c3ccc4ccccc4c3)n2)CC1 [N-(trans-4-{[4-(2-naphthyl)pyrimidin-2-yl]amino}cyclohexyl)acetamide] | 1.9 | 3.2
8 |  | 2.180 | CN1CCN(C[C@H]2CCN(c3nccc(-c4ccc5ccccc5c4)n3)C2)CC1 [2-{(3R)-3-[(4-methylpiperazin-1-yl)methyl]pyrrolidin-1-yl}-4-(2-naphthyl)pyrimidine] | 2.5 | 0.01
9 |  | 2.030 | CN(C)[C@H]1CCN([C@H]2CCN(c3nccc(-c4ccc5ccccc5c4)n3)C2)C1 [(3S,3′S)-N,N-dimethyl-1′-[4-(2-naphthyl)pyrimidin-2-yl]-1,3′-bipyrrolidin-3-amine] | 2.47 | 0.02
10 |  | 3.140 | c1ccc2cc(-c3ccnc(NCC4CNC4)n3)ccc2c1 [N-(azetidin-3-ylmethyl)-4-(2-naphthyl)pyrimidin-2-amine] | 1.46 | 1.15
11 | 6.03 |  | O[C@H]1CCCN([C@H]2CCN(c3nccc(-c4ccc5ccccc5c4)n3)C2)C1 [(3S)-1-{(3S)-1-[4-(2-naphthyl)pyrimidin-2-yl]pyrrolidin-3-yl}piperidin-3-ol] |  | 
12 |  | 3.620 | CN(C)C[C@@H]1CCN(c2nccc(-c3ccc4ccccc4c3)n2)C1 [N,N-dimethyl-1-{(3S)-1-[4-(2-naphthyl)pyrimidin-2-yl]pyrrolidin-3-yl}methanamine] | 2.26 | 2.26
13 |  | 1.360 | CC(=O)NCCC1CCN(c2nccc(-c3ccc4ccccc4c3)n2)CC1 [N-(2-{1-[4-(2-naphthyl)pyrimidin-2-yl]piperidin-4-yl}ethyl)acetamide] | 2.27 | 1
14 | 4.81 | 2.960 | CN1CCN(c2nccc(-c3ccc4ccccc4c3)n2)CC1 [2-(4-methylpiperazin-1-yl)-4-(2-naphthyl)pyrimidine] | 1.16 | 1.81
15 |  | 1.360 | COC(=O)N1CC[C@@H](Nc2nccc(-c3ccc4ccccc4c3)n2)C1 [methyl (3R)-3-{[4-(2-naphthyl)pyrimidin-2-yl]amino}pyrrolidine-1-carboxylate] |  | 2.35
16 |  | 3.540 | CCN(CCO)C[C@@H]1CCN(c2nccc(-c3ccc4ccccc4c3)n2)C1 [2-[ethyl({(3S)-1-[4-(2-naphthyl)pyrimidin-2-yl]pyrrolidin-3-yl}methyl)amino]ethanol] | 3.48 | 0.04
17 | 5.24 | 2.874 | O=C1CN([C@@H]2CCN(c3nccc(-c4ccc5ccccc5c4)n3)C2)CCN1 [4-{(3R)-1-[4-(2-naphthyl)pyrimidin-2-yl]pyrrolidin-3-yl}piperazin-2-one] | 1.25 | 2.33
18 | 5.16 | 4.375 | CC(=O)N[C@H]1CCN(c2nccc(-c3ccc4ccccc4c3)n2)C1 [N-{(3S)-1-[4-(2-naphthyl)pyrimidin-2-yl]pyrrolidin-3-yl}acetamide] | 1.02 | 1.5
19 |  | 3.720 | CN(C[C@@H]1CCN(c2nccc(-c3ccc4ccccc4c3)n2)C1)C1CCCCC1 [N-methyl-N-({(3S)-1-[4-(2-naphthyl)pyrimidin-2-yl]pyrrolidin-3-yl}methyl)cyclohexanamine] | 1.37 | 2.27

The remaining lines, values behind:

Row | SMILES | pEC50 | A = MAX FOLD Induction/DMSO CONTROL [fold] | fold induction at 2 µM | fold induction at 20 µM
20 | CN(CCCO)[C@H]1CCN(c2nccc(-c3ccc4ccccc4c3)n2)C1 [3-(methyl{(3S)-1-[4-(2-naphthyl)pyrimidin-2-yl]pyrrolidin-3-yl}amino)propan-1-ol] |  |  | 1.1 | 
21 | CN(c1nccc(-c2ccc3ccccc3c2)n1)C1CCN(C(=O)N2CCCC2)CC1 [N-methyl-4-(2-naphthyl)-N-[1-(pyrrolidin-1-ylcarbonyl)piperidin-4-yl]pyrimidin-2-amine] |  |  | 1.81 | 
22 | c1ccc2cc(-c3ccnc(N4CCC(Cn5ccnc5)C4)n3)ccc2c1 (stereo not drawn) [2-[3-(1H-imidazol-1-ylmethyl)pyrrolidin-1-yl]-4-(2-naphthyl)pyrimidine] |  |  | 1.28 | 0.38
23 | c1ccc2cc(-c3ccnc(N4CC[C@@H]5CNC[C@@H]5C4)n3)ccc2c1 [(3aR,7aS)-5-[4-(2-naphthyl)pyrimidin-2-yl]octahydro-1H-pyrrolo[3,4-c]pyridine] |  |  | 1.8 | 
24 | NC(=O)NCC1CN(c2nccc(-c3ccc4ccccc4c3)n2)C1 [N-({1-[4-(2-naphthyl)pyrimidin-2-yl]azetidin-3-yl}methyl)urea] |  |  | 1.46 | 1.64
25 | CN(c1nccc(-c2ccc3ccccc3c2)n1)C1CCN(C(=O)OC(C)(C)C)CC1 [tert-butyl 4-{methyl[4-(2-naphthyl)pyrimidin-2-yl]amino}piperidine-1-carboxylate] |  |  | 0.98 | 1.92
26 | N[C@H]1CCN(c2nccc(-c3ccc4ccccc4c3)n2)C1 [(3S)-1-[4-(2-naphthyl)pyrimidin-2-yl]pyrrolidin-3-amine] |  |  | 1.48 | 
27 | CCN(CC)C(=O)N[C@H]1CCN(c2nccc(-c3ccc4ccccc4c3)n2)C1 [N,N-diethyl-N′-{(3S)-1-[4-(2-naphthyl)pyrimidin-2-yl]pyrrolidin-3-yl}urea] |  |  | 1.83 | 
28 | CN(C)C(=O)N[C@@H]1CCN(c2nccc(-c3ccc4ccccc4c3)n2)C1 [N,N-dimethyl-N′-{(3R)-1-[4-(2-naphthyl)pyrimidin-2-yl]pyrrolidin-3-yl}urea] |  |  | 1.79 | 0.26
29 | O=C(O)C1CCN(c2nccc(-c3ccc4ccccc4c3)n2)CC1 [1-[4-(2-naphthyl)pyrimidin-2-yl]piperidine-4-carboxylic acid] |  |  | 1.78 | 0.57
30 | O=C(NC1CCCN(c2nccc(-c3ccc4ccccc4c3)n2)CC1)c1ccccc1 (stereo not drawn) [N-{1-[4-(2-naphthyl)pyrimidin-2-yl]azepan-4-yl}benzamide] |  |  | 1.23 | 1.07
31 | CN[C@@H]1CCN(c2nccc(-c3ccc4ccccc4c3)n2)C1 [(3R)—N-methyl-1-[4-(2-naphthyl)pyrimidin-2-yl]pyrrolidin-3-amine] |  |  | 1.2 | 
32 | CN1CCN(C[C@@H]2CCN(c3nccc(-c4ccc5ccccc5c4)n3)C2)CC1 [2-{(3S)-3-[(4-methylpiperazin-1-yl)methyl]pyrrolidin-1-yl}-4-(2-naphthyl)pyrimidine] |  |  | 1.8 | 
33 | Cc1ccc(S(=O)(=O)N[C@H]2CCN(c3nccc(-c4ccc5ccccc5c4)n3)C2)cc1 [4-methyl-N-{(3S)-1-[4-(2-naphthyl)pyrimidin-2-yl]pyrrolidin-3-yl}benzenesulfonamide] |  |  | 1.24 | 
34 | CN(C)C(=O)N1CC[C@@H](Nc2nccc(-c3ccc4ccccc4c3)n2)C1 [(3R)—N,N-dimethyl-3-{[4-(2-naphthyl)pyrimidin-2-yl]amino}pyrrolidine-1-carboxamide] |  |  |  | 1.33
35 | O=C(c1ccccc1)N1CCC(Nc2nccc(-c3ccc4ccccc4c3)n2)CC1 [N-(1-benzoylpiperidin-4-yl)-4-(2-naphthyl)pyrimidin-2-amine] |  | 1.490 | 1.95 | 0.01
36 | COC(=O)N(C)CCN(C)[C@@H]1CCN(c2nccc(-c3ccc4ccccc4c3)n2)C1 [methyl methyl[2-(methyl{(3R)-1-[4-(2-naphthyl)pyrimidin-2-yl]pyrrolidin-3-yl}amino)ethyl]carbamate] |  |  |  | 1.2
37 | [N-]=[N+]=NCCC1CCN(c2nccc(-c3ccc4ccccc4c3)n2)CC1 [2-[4-(2-azidoethyl)piperidin-1-yl]-4-(2-naphthyl)pyrimidine] |  |  | 1 | 1.67
